Structures can show the parent of a compound that is named as a salt.
Tests used:
[1] = system: animal models of type II diabetes; details: in vivo; cited from earlier work
[2] = system: β3; details: cited from earlier work
[3] = system: β1 or β2; details: thought to cause side-effects; cited from earlier work
[4] = in vivo; cited from earlier work
[5] = target: T1, β3 (Rattus norvegicus, UniProt P26255); details: Nature, Vol. 309, 163, 1984; cited from earlier work
T1 construct: determined by their activity to stimulate adipocyte lipolysis; from tissue; host or cells: adipocytes isolated with collagenase from rat epididymal fat pads

[6] = target: T2, human β3 receptor (Homo sapiens, UniProt P13945); test: β3 agonistic activity on human β3 receptor (cAMP production in SK-N-MC human neuroblastoma cells); type: cell-based; details: 0.5 h, 10^-6 M, 37° C., 30 minutes, vs maximum of isopreterenol at 10^-6 M, hydrochloride, read-out: Ability of cAMP production at 10^-6 M, % (vs. Isopreterenol (ISP))
T2 construct: The human neuroblastoma cells (SK-N-MC) was available from American Type Culture Collection (HTB 10); host or cells: SK-N-MC human neuroblastoma cells
Method: β3 agonistic activity on human β3 receptor
The β3 agonistic activity of the compounds was determined by their abilities to stimulate the intracellular cAMP production of human neuroblast. The human neuroblastoma cells (SK-N-MC) was available from American Type Culture Collection (HTB 10), and the cells were cultured under the atmosphere of 5% CO2 at 37° C. on a 12-well plate in Dulbeccos' modified Eagle's medium containig 10% fetal calf serum. The SK-N-MC cells on reaching semi-confluence were washed twice with 1 ml of Hank's balanced salt solution (HBSS). After the cells were treated with 0.8 ml of HBSS containing 0.25 mM isobutylmethyl-xanthine at room temperature for 5 minutes, 0.1 ml of a test solution was added. Further, after incubation at 37° C. for 30 minutes, the reaction solution was aspirated, and washed twice with 2 ml of an ice-cooled phosphate-buffered saline (PBS). The cells were disrupted with 5 mM Tris buffer (pH 7.4) containing 2 mM EDTA, centrifuged at 18,500×g for one minute, and cAMP concentration in the supernatant was determined by EIA kit (available from Amersham). The ability of cAMP production was determined as a percentage of the compound to maximum activity of cAMP production of isopreterenol at 10^-6 M concentration (Proc. Natl. Acad. Sci. USA, 90, 3665, 1993).

[7] = target: T1, β3; test: β3 agonisitic activity in rats (stimulation of adipocyte lipolysis, rat epididymal fat pads); type: cell-based; details: rat adipocytes, 37° C., 120 minutes; EC50 relative to compound's own maximum rate of lipolysis; hydrochloride; read-out: Lipolysis Molar EC50 value
Method: β3 agonisitic activity in rats
The β3 agonisitic effect of the compounds of the present invention was determined by their activity to stimulate adipocyte lipolysis. Rat epididymal fat pads were excised and placed in a buffer containing the following composition: 130 mM sodium chloride, 4.7 mM potassium chloride, 1.25 mM magnesium sulfate, 2.8 mM calcium chloride, 10 mM HEPES, 2.5 mM sodium dihydrogenphosphate, 1 g/l glucose and 1% fatty acid-free serum albumin (pH 7.6). All the following procedures were carried out in the above-mentioned buffer. 5 g of a tissue was transferred to a plastic bottle with 10 ml of the buffer solution in which 0.1% collagenase (available from Worthington Biochemical corporation) was added.
The tissue was incubated at 37° C. for about 75 minutes with gentle shaking. After the cell suspension was filtered through nylon meshes (No. 100), the cells were washed three times with two volumes of the buffer, and it was again filtered through nylon meshes. The volume was adjusted with the buffer so that the adipocyte was brought to 20% volume. A 0.1 ml aliquot of the cell suspension was added to plastic test tubes with 0.3 ml of the buffer containing vehicle or compound. The cells were incubated at 37° C. for 120 minutes with gentle shaking. The reaction solution (0.3 ml) was transferred to a centrifuge tube with […] of silicone oil (specific gravity 0.96, available from Shinetsu Chemical Industry), centrifuged at 18,500×g for one minute, and the reaction was stopped by removing the adipocyte from the buffer.
The amount of glycerol generated from the hydrolysis of triglycerides in the buffer was determined by a method using glycerol-3-phosphate oxidase/p-chlorophenol. […] of the buffer was added to a 96-well plate which contained 0.2 ml of an assay mixture having the following composition: 50 mM Tris (pH 7.5), 5.4 mM p-chlorophenol, 250 mg/ml adenosine-5'-triphosphate disodium, 150 mg 4-aminoantipyrine, 250 U/l glycerol kinase, 500 U/l glycerol-3-phosphate oxidase, 1250 U/l horseradish peroxidase. The plate was incubated at 37° C. for 15 minutes, and then an absorbance at 505 nm was determined. The molar EC50 value is the molar concentration of compound that gives 50% of that compound's own maximum rate of lipolysis.

[8] = system: male KKAy mice with hyperglycemia; test: Anti-hyperglycemic activity in male KKAy mice; type: in vivo, mouse; details: 1 mg/kg, orally for 4 days, measured on 5th day; hydrochloride
Method: The anti-hyperglycemic effect of the present compounds was determined using male KKAy mice with hyperglycemia of 300 mg/dl or more. The compound was orally administrated successively to the hyperglycemic mice for 4 days, and the blood glucose level was measured on the 5th day. The activity of the compounds was compared in terms of percent reduction in blood glucose level (a percentage of the blood glucose level after administration to that before administration). The measurement of blood glucose level was made by the method in which tail vein of mice was dissected with a scalpel and the blood was dropped onto an electrode of glucose sensor (Touekou Super, available from Kodama).

T2 sequence (P13945 whole entry): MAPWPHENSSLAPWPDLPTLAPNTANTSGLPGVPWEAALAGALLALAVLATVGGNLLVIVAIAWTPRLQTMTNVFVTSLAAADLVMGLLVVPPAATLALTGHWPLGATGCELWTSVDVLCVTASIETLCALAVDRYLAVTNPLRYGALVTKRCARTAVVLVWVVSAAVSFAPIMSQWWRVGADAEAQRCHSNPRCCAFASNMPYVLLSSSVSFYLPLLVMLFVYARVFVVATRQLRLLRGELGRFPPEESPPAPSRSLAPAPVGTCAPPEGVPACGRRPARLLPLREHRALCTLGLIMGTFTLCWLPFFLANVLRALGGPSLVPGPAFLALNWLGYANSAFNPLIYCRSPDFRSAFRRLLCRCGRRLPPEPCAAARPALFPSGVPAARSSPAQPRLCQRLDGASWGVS
T1 sequence (P26255 whole entry): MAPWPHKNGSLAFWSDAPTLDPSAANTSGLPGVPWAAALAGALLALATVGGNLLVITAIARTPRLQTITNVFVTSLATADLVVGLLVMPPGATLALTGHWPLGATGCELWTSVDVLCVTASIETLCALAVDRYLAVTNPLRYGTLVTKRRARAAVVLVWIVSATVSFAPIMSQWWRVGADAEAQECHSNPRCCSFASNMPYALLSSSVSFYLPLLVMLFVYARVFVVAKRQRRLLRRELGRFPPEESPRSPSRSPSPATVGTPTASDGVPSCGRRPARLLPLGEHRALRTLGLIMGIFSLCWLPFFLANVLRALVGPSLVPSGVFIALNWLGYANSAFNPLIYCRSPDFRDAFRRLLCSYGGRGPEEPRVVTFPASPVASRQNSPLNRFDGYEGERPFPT

Compound	EC50 [7] [nM]	Percent reduction in blood glucose level, % [8] [%]	other results
COC(=O)COc1ccc(C[C@@H](C)NC[C@H](O)c2cccc(Cl)c2)cc1 (relative stereo) [BRL 35135]	–	–	anti-hyperglycemic activity, in words [1]: anti-hyperglycemic activity; β3 agonistic activity, in words [2]: has β3 agonistic activity; β1 or β2 agonistic activity, in words [3]: has β1 or β2 agonistic activity; anti-obesity activity, in words [4]: anti-obesity activity; lipolytic activity (β3) in rats, in words [5]: lipolytic activity (β3) in rats
C[C@H](Cc1ccc(OCC(=O)O)cc1)NC[C@H](O)c1cccc(Cl)c1 (relative stereo) [BRL 37344]	–	–	anti-hyperglycemic activity, in words [1]: anti-hyperglycemic activity; anti-obesity activity, in words [4]: anti-obesity activity
COC(=O)C1COc2cc(CC(C)NCC(O)c3cccc(OC)c3)ccc2O1 (stereo not drawn) [Example 1, 6-{2-[2-Hydroxy-2-(3-methoxyphenyl)ethyl]amino}propyl-2,3-dihydro-1,4-benzodioxin-2-carboxylic acid methyl ester]	46	53	Emax at 1 µM [6]: 21%
COC(=O)C1COc2cc(CC(C)NCC(O)c3cccc(C)c3)ccc2O1 (stereo not drawn) [Example 2, 6-{2-[2-Hydroxy-2-(3-tolyl)ethyl]amino}propyl-2,3-dihydro-1,4-benzodioxin-2-carboxylic acid methyl ester]	4	–	Emax at 1 µM [6]: 25%
CCOC(=O)C1COc2cc(CC(C)NCC(O)c3ccccc3)ccc2O1 (stereo not drawn) [Example 3, 6-[2-(2-Hydroxy-2-phenylethyl)amino]propyl-2,3-dihydro-1,4-benzodioxin-2-carboxylic acid ethyl ester]	9	63	–
CCOC(=O)C1COc2ccc(CC(C)NCC(O)c3ccccc3)cc2O1 (stereo not drawn) [Example 4, 7-[2-(2-Hydroxy-2-phenylethyl)amino]propyl-2,3-dihydro-1,4-benzodioxin-2-carboxylic acid ethyl ester]	56	–	–
COC(=O)C1COc2cc(CC(C)NCC(O)c3ccc4c(c3)OCO4)ccc2O1 (stereo not drawn) [Example 5, 6-[2-(2-Hydroxy-2-piperonylethyl)amino]propyl-2,3-dihydro-1,4-benzodioxin-2-carboxylic acid methyl ester]	100	–	–
COC(=O)C1COc2cc(CC(C)NCC(O)c3cccc(Cl)c3)ccc2O1 (stereo not drawn) [Example 10, 6-{2-[2-(3-Chlorophenyl)-2-hydroxyethyl]amino}propyl-2,3-dihydro-1,4-benzodioxin-2-carboxylic acid methyl ester]	–	48	Emax at 1 µM [6]: 43%
COC(=O)C1COc2cc(CC(C)NCC(O)c3cccc(C(F)(F)F)c3)ccc2O1 (stereo not drawn) [Example 11, 6-{2-[2-Hydroxy-2-(3-trifluoromethylphenyl)ethyl]amino}propyl-2,3-dihydro-1,4-benzodioxin-2-carboxylic acid methyl ester]	2.4	–	–
COC(=O)C1COc2cc(CC(C)NCC(O)c3ccc(F)cc3)ccc2O1 (stereo not drawn) [Example 12, 6-{2-[2-Hydroxy-2-(4-fluorophenyl)ethyl]amino}propyl-2,3-dihydro-1,4-benzodioxin-2-carboxylic acid methyl ester]	26	–	Emax at 1 µM [6]: 29%
CCOC(=O)[C@H]1COc2cc(C[C@@H](C)NC[C@H](O)c3cccc(Cl)c3)ccc2O1 [Example 28, (2R,2'R,2"R)-6-{2-[2-(3-Chlorophenyl)-2-hydroxyethyl]amino}propyl-2,3-dihydro-1,4-benzodioxin-2-carboxylic acid ethyl ester hydrochloride]	0.1	42	–
CCOC(=O)[C@H]1COc2cc(C[C@H](C)NC[C@H](O)c3cccc(Cl)c3)ccc2O1 [Example 29, (2R,2'S,2"R)-6-{2-[2-(3-Chlorophenyl)-2-hydroxyethyl]amino}propyl-2,3-dihydro-1,4-benzodioxin-2-carboxylic acid ethyl ester]	1.7	54	–
CCOC(=O)[C@@H]1COc2cc(C[C@@H](C)NC[C@H](O)c3cccc(Cl)c3)ccc2O1 [Example 30, (2S,2'R,2"R)-6-{2-[2-(3-Chlorophenyl)-2-hydroxyethyl]amino}propyl-2,3-dihydro-1,4-benzodioxin-2-carboxylic acid ethyl ester]	16	–	–
CCOC(=O)[C@@H]1COc2cc(C[C@H](C)NC[C@H](O)c3cccc(Cl)c3)ccc2O1 [Example 31, (2S,2'S,2"R)-6-{2-[2-(3-Chlorophenyl)-2-hydroxyethyl]amino}propyl-2,3-dihydro-1,4-benzodioxin-2-carboxylic acid ethyl ester]	100	–	–
